Data taken from patent publication US20210198277A1, “AMINE-SUBSTITUTED ARYL OR HETEROARYL COMPOUNDS” (Epizyme, Inc., priority 2016, published 2021).

Each compound was assayed against T1, EHMT2 (Homo sapiens, UniProt Q96KQ7) (assay: MDA-MB-231 H3K9me2 in-cell Western assay (EHMT2 ICW)). Conditions: Table II; MDA-MB-231 H3K9me2 in-cell Western; read-out: EHMT2 ICW (IC50 μM).
T1 construct: host or cells: MDA-MB-231
T1 sequence (Q96KQ7 1-1210): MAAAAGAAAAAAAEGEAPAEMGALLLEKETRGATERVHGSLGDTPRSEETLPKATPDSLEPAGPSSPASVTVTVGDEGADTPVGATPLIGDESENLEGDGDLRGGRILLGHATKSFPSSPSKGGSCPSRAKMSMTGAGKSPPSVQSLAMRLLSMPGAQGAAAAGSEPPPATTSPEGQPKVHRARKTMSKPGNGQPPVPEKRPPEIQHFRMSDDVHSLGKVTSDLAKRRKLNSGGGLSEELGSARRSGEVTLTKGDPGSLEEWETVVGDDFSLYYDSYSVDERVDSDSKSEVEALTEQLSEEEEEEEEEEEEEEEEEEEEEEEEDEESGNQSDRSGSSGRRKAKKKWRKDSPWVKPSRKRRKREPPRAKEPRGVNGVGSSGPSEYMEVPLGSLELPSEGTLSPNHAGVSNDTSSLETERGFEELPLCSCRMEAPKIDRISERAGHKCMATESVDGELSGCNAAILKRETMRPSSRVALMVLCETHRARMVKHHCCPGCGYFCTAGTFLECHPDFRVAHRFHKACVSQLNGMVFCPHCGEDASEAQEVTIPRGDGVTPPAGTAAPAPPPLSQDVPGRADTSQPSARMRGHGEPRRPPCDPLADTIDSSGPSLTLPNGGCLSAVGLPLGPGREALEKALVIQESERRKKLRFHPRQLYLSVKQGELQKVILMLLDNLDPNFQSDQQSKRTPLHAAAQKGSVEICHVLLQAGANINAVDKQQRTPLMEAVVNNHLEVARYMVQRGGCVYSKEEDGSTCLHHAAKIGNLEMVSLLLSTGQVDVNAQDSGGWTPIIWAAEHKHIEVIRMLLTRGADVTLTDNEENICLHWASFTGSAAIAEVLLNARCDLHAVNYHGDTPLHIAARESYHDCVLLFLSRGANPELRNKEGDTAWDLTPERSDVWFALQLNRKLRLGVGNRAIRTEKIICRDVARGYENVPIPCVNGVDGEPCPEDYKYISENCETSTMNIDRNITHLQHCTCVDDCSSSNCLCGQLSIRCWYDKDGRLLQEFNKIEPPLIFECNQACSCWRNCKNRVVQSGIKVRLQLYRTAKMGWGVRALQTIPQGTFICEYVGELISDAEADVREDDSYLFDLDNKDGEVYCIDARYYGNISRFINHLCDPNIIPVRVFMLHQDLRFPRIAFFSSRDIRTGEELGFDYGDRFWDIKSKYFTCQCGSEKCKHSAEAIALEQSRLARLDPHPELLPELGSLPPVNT
Format: cell-based
Summary of the method: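 Cellular dimethyl-H3K9 is quantified by in-cell Western in MDA-MB-231 cells treated with compound for 48 h. The H3K9me2 signal at 800 nm is normalised to DRAQ5 nuclear stain at 700 nm. IC50 is calculated from triplicate concentration points by nonlinear regression.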

| SMILES | IC50 |
| --- | --- |
| COc1ccc(Nc2nc(C)cc(NCC3CCN(C(C)=O)CC3)n2)cc1OCCCN1CCCC1 [Compound 19, 1-(4-(((2-((4-methoxy-3-(3-(pyrrolidin-1-yl)propoxy)phenyl)amino)-6-methylpyrimidin-4-yl)amino)methyl)piperidin-1-yl)ethan-1-one] | 0.1 to 1 µM |
| COc1ccc(Nc2nccc(NCCNC(C)=O)n2)cc1OCCCN1CCCC1 [Compound 38] | 0.1 to 1 µM |
| COc1ccc(Nc2nccc(NCc3cc[nH]n3)n2)cc1OCCCN1CCCC1 [Compound 46] | 1 to 10 µM |
| COc1ccc(Nc2nccc(NC3CCCCC3)n2)cc1OCCCN1CCCC1 [Compound 50] | 1 to 10 µM |
| COc1ccc(Nc2nccc(NCc3cnn(C)c3)n2)cc1OCCCN1CCCC1 [Compound 30] | 0.1 to 1 µM |
| COc1ccc(Nc2cccc(NC3CCC3)n2)cc1OCCCN1CCCC1 [Compound 35] | 0.1 to 1 µM |
| COCCCNc1ccnc(Nc2ccc(OC)c(OCCCN3CCCC3)c2)n1 [Compound 22] | 0.1 to 1 µM |
| COc1ccc(Nc2nccc(NCCS(=O)(=O)N(C)C)n2)cc1OCCCN1CCCC1 [Compound 43] | 1 to 10 µM |
| COc1ccc(Nc2nccc(NCC3CCN(c4ccccc4)CC3)n2)cc1OCCCN1CCCC1 [Compound 33] | 0.1 to 1 µM |
| COc1ccc(Nc2nccc(NCC3CCN(C)CC3)n2)cc1OCCCN1CCCC1 [Compound 32] | 0.1 to 1 µM |
| COc1ccc(Nc2nccc(NCC3CCN(C(C)=O)CC3)n2)cc1OCC1CCN(C)C1 (centres unmarked) [Compound 18, 1-(4-(((2-((4-methoxy-3-((1-methylpyrrolidin-3-yl)methoxy)phenyl)amino)pyrimidin-4-yl)amino)methyl)piperidin-1-yl)ethan-1-one] | 1 to 10 µM |

Other lines, results leading:

| IC50 | SMILES |
| --- | --- |
| > 10 µM | COc1ccc(NCCCN2CCCC2)cc1Nc1nccc(NCC2CCOCC2)n1 [Compound 228] |
| 1 to 10 µM | COc1ccc(Nc2nccc(N)n2)cc1OCCCN1CCCC1 [Compound 245] |
| > 10 µM | CNc1nc(Nc2ccc(OC)c(OCCCN3CCCC3)c2)ncc1C(F)(F)F [Compound 234] |
| > 10 µM | COc1ccc(Nc2nccc(-n3nc(C)cc3C)n2)cc1OCCCN1CCCC1 [Compound 214] |
| 0.1 to 1 µM | CNc1nc(Nc2ccc(OC)c(OCCCN3CCCC3)c2)nc(C)c1F [Compound 236] |
| > 10 µM | COc1ccc(Nc2cccc3ncnn23)cc1OCCCN1CCCC1 [Compound 220] |
| > 10 µM | COc1ccc(Nc2nccc(CNC3CCOCC3)n2)cc1OCCCNc1ccccc1 [Compound 241] |
| > 10 µM | COc1ccc(Nc2ccnc3[nH]ccc23)cc1OCCCN1CCCC1 [Compound 250] |
| > 10 µM | COc1ccc(OCCCN2CCCC2)cc1Nc1nccc(NCC2CCOCC2)n1 [Compound 227] |
| 0.1 to 1 µM | CNc1nccc(Nc2ccc(OC)c(OCCCN3CCCC3)c2)n1 [Compound 231] |
| 1 to 10 µM | CNc1ccnc(Nc2ccc(OC)c(OCCCN3CCOCC3)c2)n1 [Compound 210] |
| > 10 µM | COc1ccc(Nc2ccc3ncn(C)c3n2)cc1OCCCN1CCCC1 [Compound 218] |
